These compounds were tested on P. falciparum (NF54 or 3D7 strain) (assay: P. falciparum proliferation assay in infected human blood cells (SYBR Green)). Conditions: Plasmodium falciparum, Erythrocyte, 72 h, read-out: EC50 (nM), inhibitory efficacy in delaying P. falciparum proliferation in infected human blood cells.
Format: cell-based
Experimental: Assay for P. falciparum Proliferation in Infected Human Blood Cells
Compounds of the invention can be assayed to measure their capacity to inhibit proliferation of P. falciparum parasitemia in infected red blood cells. This parasite proliferation assay measures the increase in parasite DNA content using a DNA intercalating dye, SYBR Green® (INVITROGEN®) which has a high affinity for double stranded DNA.
NF54 or 3D7 P. falciparum strain is grown in complete culturing media until parasitemia reaches 3% to 8% with O+ human erythrocytes. […] 20 μl of screening media is dispensed into 384 well assay plates. 50 nl of compounds of the invention (in DMSO), including antimalarial controls (mefloquine, pyrimethamine and artemisinin), are then transferred into the assay plates, as well as DMSO alone to serve as a negative control for inhibition. Then 30 μl of a suspension of a NF54 or 3D7 P. falciparum infected erythrocytes in screening media is dispensed into the assay plates such that the final hematocrit is 2.5% with a final parasitemia of 0.3%. The plates are placed in a 37° C. incubator for 72 hours in a low oxygen environment containing 93% N2, 4% CO2, and 3% O2 gas mixture. 10 μl of lysis buffer (saponin, triton-X, EDTA) containing a 10× solution of SYBR Green I® in RPMI media is dispensed into the plates. The plates are lidded and kept at room temperature overnight for the lysis of the infected red blood cells. The fluorescence intensity is measured (excitation 425 nm, emission 530 nm) using the Envision™ system (Perkin Elmer). The percentage inhibition of 50%, EC50, is calculated for each compound.

Row | Compound | EC50 [nM]
1 | N#Cc1ccc(N(C(=O)c2ccn3ncc(-c4ccc(C(N)=O)cn4)c3c2)C2CC2)cc1 [Example 142, 3-(5-Carbamoylpyridin-2-yl)-N-(4-cyanophenyl)-N-cyclopropylpyrazolo[1,5-a]pyridine-5-carboxamide] | 48

Same assay, conditions: Plasmodium falciparum, Erythrocyte; infected human erythrocytes, 72 hours, SYBR Green fluorescence; read-out: EC50 (nM), inhibitory efficacy in delaying P. falciparum proliferation in infected human blood cells

Row | Compound | EC50 [nM]
2 | CNC(=O)c1ccc(-c2cnn3ccc(C(=O)N(c4ccc(Cl)cn4)C4CC4)cc23)cc1 [Example 124, N-(5-Chloropyridin-2-yl)-N-cyclopropyl-3-(4-(methylcarbamoyl)phenyl)pyrazolo[1,5-a]pyridine-5-carboxamide] | 19
3 | CNC(=O)c1ccc(-c2cnn3ccc(C(=O)N(c4ccc(C(=O)O)cn4)C4CC4)cc23)cc1 [Example 128, 6-(N-Cyclopropyl-3-(4-(methylcarbamoyl)phenyl)pyrazolo[1,5-a]pyridine-5-carboxamido) nicotinic acid] | 4270
4 | CCNC(=O)c1ccc(-c2cnn3ccc(C(=O)N(c4ccc(C#N)cn4)C4CC4)cc23)cc1 [Example 127, N-(5-Cyanopyridin-2-yl)-N-cyclopropyl-3-(4-(ethylcarbamoyl)phenyl)pyrazolo[1,5-a]pyridine-5-carboxamide] | 49
5 | N#Cc1ccc(N(C(=O)c2ccn3ncc(-c4ccc(C(=O)NC5COC5)cc4)c3c2)C2CC2)nc1 [Example 131, N-(5-Cyanopyridin-2-yl)-N-cyclopropyl-3-(4-(oxetan-3-ylcarbamoyl)phenyl)pyrazolo[1,5-a]pyridine-5-carboxamide] | 324
6 | N#Cc1ccc(N(C(=O)c2ccn3ncc(-c4ccc(C(N)=O)cc4)c3c2)C2CC2)nc1 [Example 120, 3-(4-Carbamoylphenyl)-N-(5-cyanopyridin-2-yl)-N-cyclopropylpyrazolo[1,5-a]pyridine-5-carboxamide] | 9
7 | CNC(=O)c1ccc(-c2cnn3ccc(S(=O)(=O)N(c4ccc(C#N)cn4)C4CC4)cc23)cc1 [Example 164, 4-(5-(N-(5-Cyanopyridin-2-yl)-N-cyclopropylsulfamoyl)pyrazolo[1,5-a]pyridin-3-yl)-N-methylbenzamide] | 2
8 | N#Cc1ccc(N(C(=O)c2ccn3ncc(-c4ccc(C(N)=O)nc4)c3c2)C2CC2)cc1 [Example 138, 3-(6-Carbamoylpyridin-3-yl)-N-(4-cyanophenyl)-N-cyclopropylpyrazolo[1,5-a]pyridine-5-carboxamide] | 10
9 | NC(=O)c1ccc(-c2cnn3ccc(C(=O)N(c4ccc(F)c(F)c4)C4CC4)cc23)cc1 [Example 135, 3-(4-Carbamoylphenyl)-N-cyclopropyl-N-(3,4-difluorophenyl)pyrazolo[1,5-a]pyridine-5-carboxamide] | 1
10 | N#Cc1ccc(N(C(=O)c2ccn3ncc(-c4ccc(C(N)=O)cn4)c3c2)C2CC2)nc1 [Example 139, 3-(5-Carbamoylpyridin-2-yl)-N-(5-cyanopyridin-2-yl)-N-cyclopropylpyrazolo[1,5-a]pyridine-5-carboxamide] | 30
11 | CNC(=O)c1ccc(-c2cnn3ccc(C(=O)N(c4ccc(C#N)cn4)C4CCCC4)cc23)cc1 [Example 126, N-(5-Cyanopyridin-2-yl)-N-cyclopentyl-3-(4-(methylcarbamoyl)phenyl)pyrazolo[1,5-a]pyridine-5-carboxamide] | 67
12 | CN(C(=O)c1ccn2ncc(-c3ccc(C(=O)O)cc3)c2c1)c1ccc(C#N)cn1 [Example 101, 4-(5-((5-Cyanopyridin-2-yl)(methyl)carbamoyl)pyrazolo[1,5-a]pyridin-3-yl)benzoic acid] | 6160
13 | N#Cc1ccc(N(C(=O)c2ccn3ncc(-c4ccc(C(N)=O)cc4)c3c2)C2CC2)cc1 [Example 134, 3-(4-carbamoylphenyl)-N-(4-cyanophenyl)-N-cyclopropylpyrazolo[1,5-a]pyridine-5-carboxamide] | 4
14 | CC(C)NC(=O)c1ccc(-c2cnn3ccc(C(=O)N(c4ccc(C#N)cn4)C4CC4)cc23)cc1 [Example 121, N-(5-Cyanopyridin-2-yl)-N-cyclopropyl-3-(4-(isopropylcarbamoyl)phenyl)pyrazolo[1,5-a]pyridine-5-carboxamide] | 1160
15 | N#Cc1ccc(N(CCO)C(=O)c2ccn3ncc(-c4ccc(C(N)=O)cc4)c3c2)cc1 [Example 105, 3-(4-Carbamoylphenyl)-N-(4-cyanophenyl)-N-(2-hydroxyethyl)pyrazolo[1,5-a]pyridine-5-carboxamide] | 935
16 | CNC(=O)c1ccc(-c2cnn3ccc(C(=O)Nc4ccc(C#N)cn4)cc23)cc1 [Example 106, N-(5-Cyanopyridin-2-yl)-3-(4-(methylcarbamoyl)phenyl)pyrazolo[1,5-a]pyridine-5-carboxamide] | 521

Continued, values first:

Row | EC50 [nM] | Compound
17 | 2440 | CNC(=O)c1ccc(-c2cnn3ccc(C(=O)N(c4ccc(C(N)=O)cn4)C4CC4)cc23)cc1 [Example 129, N-(5-Carbamoylpyridin-2-yl)-N-cyclopropyl-3-(4-(methylcarbamoyl)phenyl)pyrazolo[1,5-a]pyridine-5-carboxamide]
18 | > 10000 | CNC(=O)c1ccc(-c2cnn3ccc(C(=O)N(C)c4ccc(OC)nc4)cc23)cc1 [Example 122, N-(6-Methoxypyridin-3-yl)-N-methyl-3-(4-(methylcarbamoyl)phenyl)pyrazolo[1,5-a]pyridine-5-carboxamide]
19 | 393 | N#Cc1ccc(N(C(=O)c2ccn3ncc(-c4ccc(C(=O)NC5CC5)cc4)c3c2)C2CC2)nc1 [Example 123, N-(5-Cyanopyridin-2-yl)-N-cyclopropyl-3-(4-(cyclopropylcarbamoyl)phenyl)pyrazolo[1,5a]pyridine-5-carboxamide]
20 | 80 | CNC(=O)c1ccc(-c2cnn3ccc(C(=O)N(c4ccc(F)cn4)C4CC4)cc23)cc1 [Example 125, N-Cyclopropyl-N-(5-fluoropyridin-2-yl)-3-(4-(methylcarbamoyl)phenyl)pyrazolo[1,5a]pyridine-5-carboxamide]
21 | 12 | CNC(=O)c1ccc(-c2cnn3ccc(C(=O)N(c4ccc(F)c(F)c4)C4CC4)cc23)cc1 [Example 130, N-Cyclopropyl-N-(3,4-difluorophenyl)-3-(4-(methylcarbamoyl)phenyl)pyrazolo[1,5-a]pyridine-5-carboxamide]
22 | 29 | CNC(=O)c1ccc(-c2cnn3ccc(C(=O)N(c4ccc(C(F)(F)F)cn4)C4CC4)cc23)cc1 [Example 132, N-Cyclopropyl-3-(4-(methylcarbamoyl)phenyl)-N-(5-(trifluoromethyl)pyridin-2-yl)pyrazolo[1,5-a]pyridine-5-carboxamide]
23 | 3 | N#Cc1ccc(N(C2CC2)S(=O)(=O)c2ccn3ncc(-c4ccc(C(N)=O)cc4)c3c2)nc1 [Example 165, 4-(5-(N-(5-cyanopyridin-2-yl)-N-cyclopropylsulfamoyl)pyrazolo[1,5-a]pyridin-3-yl)benzamide]

Same assay, conditions: Plasmodium falciparum; read-out: EC50, P. falciparum Proliferation Assay

Row | Compound | EC50 [nM]
24 | C[C@@H](N)C(=O)Nc1ccc(-c2cnn3ccc(C(=O)N(C)c4ccc(C#N)cc4)cc23)cc1 [Example 44, (R)-3-(4-(2-aminopropanamido)phenyl)-N-(4-cyanophenyl)-N-methylpyrazolo[1,5-a]pyridine-5-carboxamide] | < 5
25 | CN(C(=O)c1ccn2ncc(-c3cnc(N)nc3)c2c1)c1ccc(C#N)cc1 [Example 83, 3-(2-aminopyrimidin-5-yl)-N-(4-cyanophenyl)-N-methylpyrazolo[1,5-a]pyridine-5-carboxamide] | < 5
26 | CN(C(=O)c1ccn2ncc(-c3cnc4[nH]ccc4c3)c2c1)c1ccc(C#N)cn1 [Example 53, N-(5-cyanopyridin-2-yl)-N-methyl-3-(1H-pyrrolo[2,3-b]pyridin-5-yl)pyrazolo[1,5-a]pyridine-5-carboxamide] | < 5
27 | CN(C(=O)c1ccn2ncc(-c3ccc(N)nc3)c2c1)c1ccc(C#N)cc1 [Example 41, 3-(6-aminopyridin-3-yl)-N-(4-cyanophenyl)-N-methylpyrazolo[1,5-a]pyridine-5-carboxamide] | < 5
28 | CN(C(=O)c1ccn2ncc(-c3cnc4[nH]ccc4c3)c2c1)c1ccc(C#N)cc1 [Example 40, N-(4-cyanophenyl)-N-methyl-3-(1H-pyrrolo[2,3-b]pyridin-5-yl)pyrazolo[1,5-a]pyridine-5-carboxamide] | < 5

— patent US9556169B2, “Compounds and compositions for the treatment of parasitic diseases” (NOVARTIS AG, priority 2012, dated 2017)
